From patent US20090105349A1, “ANDROGEN MODULATORS” (WARNER-LAMBERT COMPANY LLC, priority 2004, published 2009)
Where a chain is given by its changes, count along the chain named.

These molecules were tested against T1, hAR (human androgen receptor) (Homo sapiens, UniProt P10275) (assay: Competitive hAR binding assay with 3H-DHT tracer). Conditions: not given.
T1 construct: made in house; host or cells: baculovirus/Sf9 insect cells (crude extract)
T1 sequence (P10275 1-920): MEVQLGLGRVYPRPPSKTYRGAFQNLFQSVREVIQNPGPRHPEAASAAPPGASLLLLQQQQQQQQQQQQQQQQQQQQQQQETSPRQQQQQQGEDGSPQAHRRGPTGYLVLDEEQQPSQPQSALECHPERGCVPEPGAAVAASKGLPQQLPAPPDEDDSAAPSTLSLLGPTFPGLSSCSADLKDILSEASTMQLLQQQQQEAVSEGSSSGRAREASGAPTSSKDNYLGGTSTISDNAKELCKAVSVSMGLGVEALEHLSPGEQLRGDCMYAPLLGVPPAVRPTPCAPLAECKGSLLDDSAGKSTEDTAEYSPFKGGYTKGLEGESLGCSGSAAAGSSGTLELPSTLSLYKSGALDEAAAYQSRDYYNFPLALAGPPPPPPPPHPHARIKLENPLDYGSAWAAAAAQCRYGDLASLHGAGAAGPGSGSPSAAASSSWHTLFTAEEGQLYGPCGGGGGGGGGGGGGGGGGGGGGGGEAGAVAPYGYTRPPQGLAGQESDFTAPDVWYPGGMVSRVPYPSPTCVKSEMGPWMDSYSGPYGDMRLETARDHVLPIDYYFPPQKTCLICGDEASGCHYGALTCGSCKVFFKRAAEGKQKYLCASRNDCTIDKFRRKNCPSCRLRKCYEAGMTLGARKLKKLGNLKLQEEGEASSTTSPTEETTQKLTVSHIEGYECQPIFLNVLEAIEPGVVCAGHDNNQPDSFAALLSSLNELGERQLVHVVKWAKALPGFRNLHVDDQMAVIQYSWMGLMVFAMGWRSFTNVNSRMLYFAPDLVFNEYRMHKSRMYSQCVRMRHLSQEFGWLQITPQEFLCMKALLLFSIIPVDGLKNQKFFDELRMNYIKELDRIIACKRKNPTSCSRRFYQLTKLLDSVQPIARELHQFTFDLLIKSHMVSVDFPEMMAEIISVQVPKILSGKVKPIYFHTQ
Protocol: The description below describes how the assay was carried out.
Competitive binding analysis was performed on baculovirus/Sf9 generated hAR extracts in the presence or absence of different concentrations of test agent and a fixed concentration of ^3H-dihydrotestosterone (3H-DHT) as tracer. […] Subsequently, the binding reactions are washed three times to completely remove excess unbound ^3H-DHT. hAR bound ^3H-DHT levels are determined in the presence of compounds (i.e. competitive binding) and compared to levels bound when no competitor is present (i.e. maximum binding). Compound binding affinity to the hAR is expressed as the concentration of compound at which one half of the maximum binding is inhibited.

SMILES | IC50 [nM]
CSc1ccccc1Oc1ccc(C#N)c(Cl)c1 [Example 3, 2-Chloro-4-(2-methylsulfanyl-phenoxy)-benzonitrile] | 47
Cc1ccc(F)c(Oc2ccc(C#N)cc2Cl)c1F [Example 6, 3-Chloro-(2,6-difluro-5-methyl-phenoxy)benzonitrile] | 59
COc1ccccc1Oc1ccc(C#N)cc1Cl [Example 10, 3-Chloro-4-(2-methoxy-phenoxy)-benzonitrile] | 29
Cc1cc(C)c(Oc2ccc(C#N)cc2Cl)c(C)c1 [Example 15, 3-Chloro-(2,4,6-trimethyl-phenoxy)-benzonitrile] | 16
Cc1cccc(C)c1Oc1ccc(C#N)cc1Cl [Example 16, 3-Chloro-4-(2,,6-dimethyl-phenoxy)-benzonitrile] | 16
CCOc1ccccc1Oc1ccc(C#N)c(Cl)c1 [Example 70, 2-Chloro-4-(2-ethoxy-phenoxy)-benzonitrile] | 19
CC(N)c1cc(F)ccc1Oc1ccc(C#N)c(C(F)(F)F)c1 (stereo not shown) [Example 122, 4-[2-(1-aminoethyl)-4-fluoro-phenoxy]-2-trifluoromethyl-benzonitrile] | 2

Same assay, conditions: baculovirus/Sf9 hAR extract, 1 nM 3H-DHT, one hour at 4° C; mean of multiple tests; read-out: AR Binding IC50

SMILES | IC50 [nM]
CCSc1ccccc1Oc1ccc(C#N)cc1Cl [Example 1, 3-Chloro-4-(2-ethylsulfanyl-phenoxy)-benzonitrile] | 281
N#Cc1ccc(Oc2ccccc2[N+](=O)[O-])c(Cl)c1 [Example 2, 3-Chloro-4-(2-nitro-phenoxy)-benzonitrile] | 472
N#Cc1ccc(Oc2ccccc2C(N)=O)cc1Cl [Example 8, 2-(3-Chloro-4-cyano-phenoxy)-benzamide] | 222
Cc1ccc(C)c(Oc2ccc(C#N)cc2Cl)c1 [Example 9, 3-Chloro-4-(2,5-dimethyl-phenoxy)-benzonitrile] | 356
C=CCc1cccc(C)c1Oc1ccc(C#N)cc1Cl [Example 11, 4-(2-Allyl-6-methyl-phenoxy)-3-chloro-benzonitrile] | 242
Cc1ccc(C(C)C)c(Oc2ccc(C#N)cc2Cl)c1 [Example 14, 3-Chloro-4-(2-isopropyl-5-methyl-phenoxy)-benzonitrile] | 375
CCN(CC)C(=O)c1ccccc1Oc1ccc(C#N)cc1Cl [Example 18, 2-(2-Chloro-4-cyano-phenoxy)-N,N-diethyl-benzamide] | 402
Cc1ccc(Oc2ccc(C#N)cc2Cl)c(C)c1 [Example 21, 3-Chloro-4-(2,4-dimethyl-phenoxy)-benzonitrile] | 263
COc1ccc(C)cc1Oc1ccc(C#N)cc1Cl [Example 22, 3-Chloro-4-(2-methoxy-5-methyl-phenoxy)-benzonitrile] | 491
Cc1cccc(Oc2ccc(C#N)cc2Cl)c1 [Example 28, 3-Chloro-4-m-tolyloxy-benzonitrile] | 412
N#Cc1ccc(Oc2ccc3c(c2)CCC3)cc1Cl [Example 43, 2-Chloro-4-(indan-5-yloxy)-benzonitrile] | 439
CCOC(=O)c1ccc(Oc2ccc(C#N)c(Cl)c2)c(OC)c1 [Example 55, 4-(3-Chloro-4-cyano-phenoxy)-3-methoxy-benzoic acid ethyl ester] | 300
Cc1ccc(-c2ccc(Oc3ccc(C#N)c(Cl)c3)c(C)c2)cc1 [Example 58, 2-Chloro-4-(3,4′-dimethyl-biphenyl-4-yloxy)-benzonitrile] | 436
Cc1ccc(Oc2ccc(C#N)c(Cl)c2)c(Cc2ccccc2)c1 [Example 62, 4-(2-Benzyl-4-methyl-phenoxy)-2-chloro-benzonitrile] | 326
CCOc1ccccc1Oc1ccc(C#N)cc1Cl [Example 71, 3-Chloro-4-(2-ethoxy-phenoxy)-benzonitrile] | 299
N#Cc1ccc(Oc2cccc3ccccc23)c(Cl)c1 [Example 72, 3-Chloro-4-(naphthalen-1-yloxy)-benzonitrile] | 478
Cc1ccc(Oc2ccc(C#N)c(Cl)c2)c(C(C)(C)C)c1 [Example 73, 4-(2-tert-Butyl-4-methyl-phenoxy)-2-chloro-benzonitrile] | 253
COc1cc(C(C)=O)ccc1Oc1ccc(C#N)c(C(F)(F)F)c1 [Example 74, 4-(4-Acetyl-2-methoxy-phenoxy)-2-trifluoromethyl-benzonitrile] | 1480
CC(=O)c1ccc(Oc2ccc(C#N)c(C(F)(F)F)c2)cc1 [Example 75, 4-(4-Acetyl-phenoxy)-2-trifluoromethyl-benzonitrile] | 443
N#Cc1ccc(Oc2ccccc2[N+](=O)[O-])cc1C(F)(F)F [Example 77, 4-(2-Nitro-phenoxy)-2-trifluoromethyl-benzonitrile] | 458
CCN(CC)Cc1c(C)ccc(C)c1Oc1ccc(C#N)c(C(F)(F)F)c1 [Example 89, 4-(2-Diethylaminomethyl-3,6-dimethyl-phenoxy)-2-trifluoromethyl-benzonitrile] | 255
N#Cc1ccc(Oc2ccccc2OCc2ccccc2)cc1C(F)(F)F [Example 92, 4-(2-Benzyloxy-phenoxy)-2-trifluoromethyl-benzonitrile] | 361
N#Cc1ccccc1Oc1ccc(C#N)c(C(F)(F)F)c1 [Example 112, 4-(2-Cyano-phenoxy)-2-trifluoromethyl-benzonitrile] | 315
C[C@H](O)CNC(=O)c1ccccc1Oc1ccc(C#N)c(C(F)(F)F)c1 [Example 113, 2-(4-Cyano-3-trifluoromethyl-phenoxy)-N-(2-hydroxy-propyl)-benzamide] | 353
CC(C)(CO)CNC(=O)c1ccccc1Oc1ccc(C#N)c(C(F)(F)F)c1 [Example 114, 2-(4-Cyano-3-trifluoromethyl-phenoxy)-N-(3-hydroxy-2,2-dimethyl-propyl)-benzamide] | 402

Each molecule was assayed against T2, androgen receptor in MDA-MB453-MMTV clone 54-19 cells (Homo sapiens, UniProt P10275) (assay: AR antagonist cell assay (MMTV-luciferase reporter)). Conditions: MDA-MB453-MMTV clone 54-19, inhibition of DHT induced luciferase, 17 hr; mean of multiple tests; read-out: AR Cell IC50.
T2 sequence (P10275 1-920 Q868H): T1 sequence (P10275 1-920) with Q868H
Format: cell-based
Protocol: The compounds ability to antagonize the effects of androgen on the androgen receptor were determined in a whole cell assay as described immediately below.
This cell line is a stable transfected cell line with MDA-MB453 cell background (a human breast tumor cell line expressing androgen receptor). A MMTV minimal promoter containing ARE was first cloned in front of a firefly luciferase reporter gene. Then the cascade was cloned into transfection vector pUV120puro. […] Puromycin resistant stable cell line was selected.
Plating medium: DMEM (phenol red free), 10% charcoal treated HyClone serum, 1% L-glutamine
Assay medium: DMEM (phenol red free), 1% charcoal treated HyClone serum, 1% L-glutamine, and 1% penicillin/streptomycin
Assay procedure: • 1. Cells are maintained in culture medium, splitting cells when they reach 80-90% confluence • 2. To test compounds, 10,000 cells/well are plated to opaque 96 cell culture plate in 100 ul/well plating medium, culture for overnight at 37° C. in cell culture incubator • 3. […] Add 10 ul/well freshly prepared DHT (final concentration at […]) to each well, incubate at 37° C. for 17 hr (overnight) • 5.
The results are reported as the mean of multiple tests as described below (the numbers of tests are indicated in the footnote). N.D. denotes that the compound was not tested.

SMILES | IC50 [nM]
N#Cc1ccc(Oc2ccccc2C(N)=O)cc1Cl [Example 8, 2-(3-Chloro-4-cyano-phenoxy)-benzamide] | > 1000
COc1ccccc1Oc1ccc(C#N)cc1Cl [Example 10, 3-Chloro-4-(2-methoxy-phenoxy)-benzonitrile] | 319
Cc1cc(C)c(Oc2ccc(C#N)cc2Cl)c(C)c1 [Example 15, 3-Chloro-(2,4,6-trimethyl-phenoxy)-benzonitrile] | > 1000
Cc1cccc(C)c1Oc1ccc(C#N)cc1Cl [Example 16, 3-Chloro-4-(2,,6-dimethyl-phenoxy)-benzonitrile] | 161

Same assay, conditions: read-out: AR Cell IC50; MDA-MB453-MMTV clone 54-19, inhibition of DHT induced luciferase, 17 hr; mean of multiple tests

SMILES | IC50 [nM]
CSc1ccccc1Oc1ccc(C#N)c(Cl)c1 [Example 3, 2-Chloro-4-(2-methylsulfanyl-phenoxy)-benzonitrile] | < 0.32
